Results on 13 compounds are retold here after paper PMC7865276, “Chemical Constituents of the Bulbs of Scilla peruviana and Their Pancreatic Lipase Inhibitory Activity” (International Journal of Molecular Sciences, 2021).

Assay [1] deals with T1, lipase from porcine pancreas, TYPE II (Sus scrofa, UniProt P00591).
T1 construct: lipase from porcine pancreas, TYPE II; purchased Sigma-Aldrich; host or cells: porcine pancreas (tissue preparation)
T1 sequence (P00591 1-450): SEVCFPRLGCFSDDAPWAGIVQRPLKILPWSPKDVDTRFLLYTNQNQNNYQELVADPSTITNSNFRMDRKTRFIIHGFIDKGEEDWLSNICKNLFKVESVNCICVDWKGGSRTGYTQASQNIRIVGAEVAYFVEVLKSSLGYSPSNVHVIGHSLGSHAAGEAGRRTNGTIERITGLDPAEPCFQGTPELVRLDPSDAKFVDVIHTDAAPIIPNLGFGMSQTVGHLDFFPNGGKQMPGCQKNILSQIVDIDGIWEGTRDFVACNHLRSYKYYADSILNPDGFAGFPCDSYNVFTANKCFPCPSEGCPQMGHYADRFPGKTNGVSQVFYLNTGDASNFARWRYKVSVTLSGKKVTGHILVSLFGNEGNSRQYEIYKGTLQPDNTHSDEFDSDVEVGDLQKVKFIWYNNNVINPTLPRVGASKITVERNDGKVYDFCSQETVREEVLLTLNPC
Nature of the assay: pancreatic lipase inhibitory activity (Lipase Kit S, BALB substrate). The settings on record: for pancreatic lipase inhibitory activity (in words): in vitro, 0.45, 0.90 and 4.5 mM. In kind it is biochemical. The method, then:
The pancreatic lipase activity of each test sample was measured by a modified method using a commercially available kit (Lipase Kit S, Dainippon Pharmaceutical). The purities of test samples were confirmed by HPLC analysis (Figure S6 in Supplementary Materials). Cetilistat was used as a positive control at 0.1, 1.0, and 10 μM. Test sample was dissolved in EtOH–H2O (1:1) and diluted to concentrations of 0.45, 0.90, and 4.5 mM, respectively. Lipase (lipase from porcine pancreas, TYPE II, 100–500 units/mg) was purchased from Sigma-Aldrich. Briefly, test sample was mixed with enzyme buffer, and incubated for 5 min at 30 °C. After incubation, 2,3-dimercapto-1-propanol tributyrate (BALB) as substrate was added and the enzyme reaction was proceeded for 30 min at 30 °C. Lipase activity was determined by measuring the absorbance of the resulting 5-thio-2-nitrobenzoate anion at 412 nm using a microplate reader. The inhibition rate was calculated by the following formula: Inhibition rate (%) = [1 − (ΔAsample − ΔAblank)/(ΔAcontrol − ΔAblank)] × 100. The inhibitory concentration (IC50) was calculated by log-Probit analysis.

A further assay concerns ddY mice. Put plainly: serum TG levels in intralipid (soybean oil)-loaded mice. The settings on record: for serum TG levels: 15 min before intralipid loading, 120 min after intralipid, mean ± S.E.M., n = 5. In kind it is in vivo. The protocol: Male ddY mice, 5 weeks old, were purchased from Japan Laboratory Animals and maintained in the animal facility of the Tokyo University of Pharmacy and Life Sciences. The animals were housed in cages under controlled temperature (23 ± 2 °C) and a 12 h light-dark cycle. The mice were allowed free access to breeding food and water. All experiments were approved by the Tokyo University of Pharmacy and Life Sciences Animal Use Committee (approval number: P17-84, date of approval: 24 April 2017).
After 5 weeks, mice were fasted overnight and randomly divided into five groups (n = 5). The body weight of each mouse was measured (24.0–30.7 g/body). 0.5% Carboxymethyl cellulose (CMC; Wako Pure Chemical Industries), cetilistat (Tokyo Kasei, purity > 98.0%; 180 mg/kg), or compound 6 (150 or 300 mg/kg) were prepared for test samples and the intralipid (soybean oil 20% emulsion, 20 mL/kg, Sigma-Aldrich) was used for the high-fat diet. Single dose of 0.5% CMC, cetilistat, and compound 6 (150 or 300 mg/kg) were orally administered to mice in each group (n = 5) 15 min before the intralipid loading. Blood samples were collected from the abdominal vena cava 120 min after the intralipid-loaded treatment and centrifuged (700× g for 10 min) to obtain serum samples. The TG levels in serum were measured using a commercially available kit (Wako Triglyceride E-Test kit, Wako Pure Chemical Industries).

In another assay the test system is pancreatic lipase. On the set-up: method as in PMID 25389058. The settings on record: cited from earlier work.
In assay [2] the test system is cyclic adenosine monophosphatase (cAMP) phosphodiesterase. Further details: method as in PMID 8149459, doi:10.1246/cl.1992.1863. The settings on record: cited from earlier work.
The test system of another assay is mice. Further details: method as in earlier work. Conditions: oral administration; cited from earlier work.
Setting [3] is: mean ± S.E.M. of three experiments in triplicate, tested at 0.45, 0.90, 4.5 mM.

For `CCCCCCCCCCCCCCCCOc1nc2ccc(C)cc2c(=O)o1` [Cetilistat, reference compound], the IC50 (as a rule, the concentration that gives 50% inhibition) in assay [1] (positive control, tested at 0.1, 1.0, 10 μM, mean ± S.E.M.) is 1.43 ± 0.052 µM. Moreover, the “serum TG levels” value in the assay on ddY mice (180 mg/kg oral) is reported as 130.2 ± 23.4 mg/dL.
On to `CC(C)=CCCC(C(=O)O)C1CCC2(C)C3CCC4C(C)(CCC(O)C4(C)C)C3=CCC12C` (stereo not drawn) [3β-Hydroxylanosta 9,24-dien-21-oic acid], for which, in the assay on pancreatic lipase, the “pancreatic lipase inhibition (in words)” value was “inhibit the pancreatic lipase activity”.
In assay [1] (setting [3]), `CC1CC2(CC(C)C3(CCC4(C)C5=C(CCC43C)C3(C)CCC(OC4OC(COC6OCC(O)C(O)C6OC6OC(CO)C(O)C(O)C6OC6OC(C)C(O)C(O)C6O)C(O)C(O)C4O)C(CO)(CO)C3CC5)O2)OC1=O` [Compound 7, (23S,25R)-3β,30,31-trihydroxy-17α,23-epoxy-5α-lanost-5-en-23,26-olactone3-O-[O-α-L-rhamno-pyranosyl-(1→2)-O-β-D-glucopyranosyl-(1→2)-O-α-L-arabinopyranosyl-(1→6)-O-β-D-glucopyranoside]] had an IC50 of 1100 ± 15 µM.
As to `COC(=O)/C(C)=C/[C@H]1[C@H](O)O[C@H]2C[C@@]3(C)C4=C(CC[C@]3(C)[C@@]2(O)[C@@H]1C)[C@@]1(C)CC[C@H](O[C@@H]2O[C@H](CO)[C@@H](O)[C@H](O)[C@H]2O[C@@H]2O[C@H](CO)[C@@H](O)[C@H](O)[C@H]2O[C@@H]2O[C@@H](C)[C@H](O)[C@@H](O)[C@H]2O)C(C)(C)[C@@H]1CC4` [Compound 4, peruvianoside A], the “cAMP phosphodiesterase inhibitory activity (in words)” value in assay [2] is reported as “show cyclic adenosine monophosphatase (cAMP) phosphodiesterase inhibitory activity”. For the same compound, the midpoint of inhibition in assay [1] (setting [3]), the IC50, lay at 1420 ± 40 µM.
Take `CC1CC2(CC(C)C3(CCC4(C)C5=C(CCC43C)C3(C)CCC(OC4OC(COC6OCC(O)C(O)C6OC6OC(CO)C(O)C(O)C6OC6OC(C)C(O)C(O)C6O)C(O)C(O)C4O)C(C)(CO)C3CC5)O2)OC1=O` [Compound 6, (23S,25R)-3β,31-dihydroxy-17α,23-epoxy-5α-lanost-8-en-23,26-olactone3β-O-[O-α-L-rhamnopyranosyl-(1→2)-O-β-D-gluco-pyranosyl-(1→2)-O-α-L-arabinopyranosyl-(1→6)-O-β-D-glucopyranoside]]: in assay [1], the “pancreatic lipase inhibitory activity (in words)” value is “significant pancreatic lipase inhibitory activity in a concentration-dependent manner”. The compound also returned an IC50 in assay [1] (setting [3]) of 810 ± 29 µM. The “serum TG levels” value in the assay with ddY mice (300 mg/kg single oral dose) was 90.9 ± 16.2 mg/dL. The “effect on serum triglyceride levels (in words)” value in the assay on ddY mice (oral, 150 or 300 mg/kg, soybean oil-loaded mice) was “reduced serum triglyceride levels in a dose-dependent manner”.
Take scillasaponin B: the “cAMP phosphodiesterase inhibitory activity (in words)” value in assay [2] is reported as “show cyclic adenosine monophosphatase (cAMP) phosphodiesterase inhibitory activity”.
Turning to `COC(=O)/C(C)=C/[C@H]1[C@H](O)O[C@H]2C[C@@]3(C)C4=C(CC[C@]3(C)[C@@]2(O)[C@@H]1C)[C@@]1(C)CC[C@H](O[C@@H]2O[C@H](CO)[C@@H](O)[C@H](O)[C@H]2O[C@@H]2O[C@H](CO)[C@@H](O)[C@H](O)[C@H]2O[C@@H]2O[C@@H](C)[C@H](O)[C@@H](O)[C@H]2O)[C@](C)(CO)[C@@H]1CC4` [Compound 5, peruvianoside B], the midpoint of inhibition in assay [1] (setting [3]), the IC50, lay at 1400 ± 35 µM.
In assay [1] (setting [3]), `CCC(=O)[C@@H]1C[C@@H](C)[C@]2(CC[C@@]3(C)C4=C(CC[C@@]32C)[C@@]2(C)CC[C@H](O[C@@H]3O[C@H](CO[C@@H]5OC[C@H](O)[C@H](O)[C@H]5O[C@@H]5O[C@H](CO)[C@@H](O)[C@H](O[C@@H]6O[C@H](CO)[C@@H](O)[C@H](O)[C@H]6O)[C@H]5O[C@@H]5O[C@@H](C)[C@H](O)[C@@H](O)[C@H]5O)[C@@H](O)[C@H](O)[C@H]3O)[C@](C)(CO)[C@@H]2CC4)O1` [Compound 9, 15-deoxy-eucosterol3β-[O-β-D-glucopyranosyl-(1→3)-O-[α-L-rhamnopyranosyl-(1→2)]-β-D-glucopyranosyl-(1→2)-O-α-L-arabinopyranosyl-(1→6)-O-β-D-glucopyranoside]] gave an IC50 of 910 ± 23 µM.
Consider `COC(=O)/C(C)=C/[C@H]1[C@H](OC)O[C@H]2C[C@@]3(C)C4=C(CC[C@]3(C)[C@@]2(O)[C@@H]1C)[C@@]1(C)CC[C@H](O[C@@H]2O[C@H](CO)[C@@H](O)[C@H](O)[C@H]2O[C@@H]2O[C@H](CO)[C@@H](O)[C@H](O)[C@H]2O[C@@H]2O[C@@H](C)[C@H](O)[C@@H](O)[C@H]2O)C(C)(C)[C@@H]1CC4` [Compound 2, 23α-methyl-peruvianoside A], for which, in assay [1], the “pancreatic lipase inhibitory activity (in words)” value is on record as “significant pancreatic lipase inhibitory activity in a concentration-dependent manner”. This compound displayed an IC50 in assay [1] (setting [3]) of 840 ± 29 µM.
`CCC(=O)[C@@H]1C[C@@H](C)[C@]2(CC[C@@]3(C)C4=C(CC[C@@]32C)[C@@]2(C)CC[C@H](O[C@@H]3O[C@H](CO[C@@H]5OC[C@H](O)[C@H](O)[C@H]5O[C@@H]5O[C@H](CO)[C@@H](O)[C@H](O[C@@H]6O[C@H](CO)[C@@H](O)[C@H](O)[C@H]6O)[C@H]5O[C@@H]5O[C@@H](C)[C@H](O)[C@@H](O)[C@H]5O)[C@@H](O)[C@H](O)[C@H]3O)C(CO)(CO)[C@@H]2CC4)O1` [Compound 10, 15-deoxy-30-hydroxyeucosterol3β-[O-β-D-glucopyranosyl-(1→3)-O-[α-L-rhamnopyranosyl-(1→2)]-β-D-glucopyranosyl-(1→2)-O-α-L-arabinopyranosyl-(1→6)-O-β-D-glucopyranoside]] showed an IC50 in assay [1] (setting [3]) of 1130 ± 62 µM.
Regarding `C[C@@H]1O[C@@H](O[C@H]2[C@H](O[C@H]3[C@H](OC[C@H]4O[C@@H](O[C@H]5CC[C@]6(C)C7=C(CC[C@H]6[C@@]5(C)CO)[C@]5(C)CC[C@@]6(OC(=O)C[C@H]6C)[C@@]5(C)CC7)[C@H](O)[C@@H](O)[C@@H]4O)OC[C@H](O)[C@@H]3O)O[C@H](CO)[C@@H](O)[C@@H]2O[C@@H]2O[C@H](CO)[C@@H](O)[C@H](O)[C@H]2O)[C@H](O)[C@H](O)[C@H]1O` [Compound 11, scillanostaside G], in assay [1], the “pancreatic lipase inhibitory activity (in words)” value was “inhibited the pancreatic lipase activity in an inverted dose-dependent manner”. In addition, in assay [1] (setting [3]), the IC50 is > 4500 µM.
For `COC(=O)/C(C)=C/[C@H]1[C@@H](OC)O[C@H]2C[C@@]3(C)C4=C(CC[C@]3(C)[C@@]2(O)[C@@H]1C)[C@@]1(C)CC[C@H](O[C@@H]2O[C@H](CO)[C@@H](O)[C@H](O)[C@H]2O[C@@H]2O[C@H](CO)[C@@H](O)[C@H](O)[C@H]2O[C@@H]2O[C@@H](C)[C@H](O)[C@@H](O)[C@H]2O)C(C)(C)[C@@H]1CC4` [Compound 3, 23β-methyl-peruvianoside A] the same measures were “significant pancreatic lipase inhibitory activity in a concentration-dependent manner” and 590 ± 20 µM.
Consider `C=C1C(O)CCC2C1(C)CCC1C2(C)CCC2(C)C3C(C(C)C)CCC3(C)CCC12C` (stereo not drawn) [cymbopogonol], for which, in the assay on mice, the “effect on serum TG levels (in words)” value is reported as “reduced serum TG levels in mice”.
